Converted amounts (≈) assume the structure as drawn. Like-named read-outs stand apart in the source and are kept apart here.
Experiments:
[1] = 2,4D release from tablets containing preformed 2,4D complexes (Examples 8, 10, 11); assay type: physicochemical; settings: 20% 2,4D tablets in silt, 1 L deionized water, 20° C., 60 rpm, FIGS. 16, 18, 19
Method: The resulting solids were filtered and resuspended in deionized water with stirring for 15 min., then filtered again. The solids were dried to constant mass in a food dehydrator 120° F.
The resulting tablets were immersed in 1 L of deionized water at 20° C. and stirred at 60 rpm for the designated time period.

physchem = settings: water
[2] = Benzoic acid release from benzoic acid salt tablets (Example 21); assay type: physicochemical; settings: 1 L stirred deionized water, room temperature, FIG. 30
Method: Benzoic acid (BA) is a structural analogue to dicamba with its carboxylic acid in the benzyl position. BA salts were prepared by mixing a stoichiometric amount of metal hydroxide with benzoic acid in deionized water for a minimum of 12 hours. The resulting solids were filtered out of solution and dried in a dehydrator for 12 hours at 120° F. These were then blended with silt in a mortar and pestle and pressed on a desktop tablet press into 6 mm tablets (average tablet weight 0.093 g).
• A. 0.1 g BA, 0.4 g silt • B. 0.1 g Mg(BA)2, 0.4 g silt • C. 0.1 g Ca(BA)2, 0.4 g silt • D. 0.1 g Cu(BA)2, 0.4 g silt • E. 0.1 g Na benzoate, 0.4 g silt
These tablets were immersed in 1 L, stirred (60 rpm), room temperature, deionized water with two tablets per jar. […] A trend can be expected, but not predicted. Based on this, a trend could also be expected when dicamba is paired with metal ions.

[3] = Terrestrial sand bed with 2,4D salts and modeled rain events (Example 24); assay type: physicochemical; settings: 7×200 mL flushes of deionized water, FIG. 33
Method: 200 mL of sand was layered in a Buchner funnel with filter paper. 2,4D salts were blended with 5.0 g of sand, and layered atop the 200 mL sand bed and exposed to 7×200 mL flushes of deionized water. 2,4D concentration was measured in the flush water to study how the associated metal impacted how rapidly 2,4D was lost from the surface.
In a terrestrial application, 2,4D lost from the surface would no longer be available to treat the target plant.

[4] = as listed in FIG. 36
[5] = TFM release when paired with bases of increasing solubility; assay type: physicochemical
From the text: If a weak base is paired with the TFM, the solubilization of TFM can be controlled by the basicity and/or the solubility of the weak base.

[6] = Release from dual active tablets, copper-endothall salt and Mg(2,4D)2 or Ca(2,4D)2 (Example 18); assay type: physicochemical; settings: tablets with Mg(2,4D)2 or Ca(2,4D)2, 1 L stirred deionized water, both formulations, FIG. 27
Method: Formulations were mixed using a blender and then pressed into 6 mm tablets (average weight of 0.082 g/tablet) using a desktop tablet press. Exact Formulations: • A. 0.5 g Endothall (Cu), 0.5 g 2,4D (Ca), 0.5 g silt • B. 0.5 g Endothall (Cu), 0.5 g 2,4D (Mg), 0.5 g silt
(§1) The resulting tablets were immersed in 1 L of stirred deionized water (60 rpm). […] The copper endothall salt portion of the formulation releases rapidly within 24 hours for both formulations.

[7] = Release from dual active tablets, copper-endothall salt and Mg(triclopyr)2 or Ca(triclopyr)2 (Example 19); assay type: physicochemical; settings: tablets with Mg(triclopyr)2 or Ca(triclopyr)2, 1 L stirred deionized water, both formulations, FIG. 28
Method: Formulations were prepared with 33 weight percent each of copper-endothall salt, Mg(triclopyr)2 or Ca(triclopyr)2 salt, and silt. Formulations were mixed using a blender and then pressed into 6 mm tablets (average weight of 0.082 g/tablet) using a desktop tablet press.
• A. 0.5 g Endothall (Cu), 0.5 g triclopyr (Ca), 0.5 g silt • B. 0.5 g Endothall (Cu), 0.5 g triclopyr (Mg), 0.5 g silt
as §1

## O=C(O)COc1ccc(Cl)cc1Cl [2,4D, 2,4-dichlorophenoxyacetic acid, reference compound]
[1]
  2,4D release rate, comparison: releases significantly faster than the Ca(2,4D)2
physchem
  solubility: 740 µg/mL (≈ 3.35 mM)

## O=C(O)COc1ccc(Cl)cc1Cl [Ca(2,4D)2]
[1]; listed as premade calcium complex
  2,4D release rate, comparison: not significantly slower

## O=C([O-])c1ccccc1.O=C([O-])c1ccccc1.[Ca+2] [Ca(BA)2]
[2]
  benzoic acid release rate, comparison: releases significantly faster than BA

## O=C([O-])COc1ccc(Cl)cc1Cl.O=C([O-])COc1ccc(Cl)cc1Cl.[Cu+2] [Cu(2,4D)2]
[1]
  2,4D release rate, comparison: the slowest of all
[3]
  tolerance of 2,4D salt on sand bed to water flushes: most tolerant to frequent exposure to rain or watering events

## O=C([O-])COc1ccc(Cl)cc1Cl.O=C([O-])COc1ccc(Cl)cc1Cl.[Fe+2] [Fe(2,4D)2]
[1]
  2,4D release rate, comparison: releases more slowly than 2,4D
[4]
  solubility: 1860 µg/mL

## O=C([O-])COc1ccc(Cl)cc1Cl.[Na+] [Na(2,4D)]
[1]
  2,4D release rate, comparison: releases the fastest

## O=[N+]([O-])c1ccc(O)cc1C(F)(F)F [TFM, 3-trifluoromethyl-4-nitrophenol]
[5]
  TFM release rate, order by paired base: Mg(OH)2<Ca(OH)2<<<KOH

## O=C([O-])C1C2CCC(O2)C1C(=O)[O-].[Cu+2] (stereo not drawn) [copper endothall salt]
[6]
  time for release of endothall portion: ≤ 24 h
[7]
  time for release of endothall portion: ≤ 24 h

— patent publication US20250318525A1, “COMPOSITIONS TO CONTROL THE RELEASE RATES OF CHEMICAL PESTICIDES” (priority 2020, published 2025)
